Data as given in patent publication US12274729B2, “Formulations and methods for skin care or hyaluronic acid synthesis” (AMILYFE, LLC, priority 2022, dated 2025).

Assays:
[1] = system: barrier marker genes in differentiated normal human epidermal keratinocytes (NHEK); assay: qPCR mRNA expression of barrier marker genes in differentiated NHEK; assay type: cell-based; settings: qPCR data from two donors
Protocol: Treatment time—4 h. […] Data from two independent experiments. Exemplary barrier marker genes examined as follows: Epidermal growth factor (EGF); fibroblast growth factor 2 (FGF2); platelet derived growth factor (PDGF); Carnitine Palmitoyltransferase 2 (CPT2); Transglutaminase 4 (TGM4); Peroxisome Proliferator Activated Receptor Delta (PPARD); TNF Receptor Superfamily Member 10d (TNFRSF10D).
To test the effect of amino acid treatment on epithelial skin barrier, a cellular model of differentiated normal human epidermal keratinocytes (NHEK) was utilized. Commercially available NHEK (ATCC), derived from three diverse healthy donors, were used. Based on a multivariate analysis, three amino acids for the treatment: Ser, Gln and Gly were selected.
Using gene arrays, comparative analyses of two datasets were performed in three diverse donors focusing on consistently differentially [filter criterion of fold change 1.5 (positive or negative) and p-value <0.05)] expressed genes following treatment with various amino acids and combinations thereof. qPCR was used to assess the mRNA expression results. The qPCR results confirmed the array results pertaining to differential expression, thereby validating the panel of genes.
mRNA is extracted, converted to cDNA, and analyzed by qPCR method using custom TaqMan array 384-well plates (Thermo Fisher Scientific) containing 34 of the above-mentioned genes. Four control housekeeping genes are included to normalize the mRNA expression: GAPDH, POLR2A, YWHAZ and PGK1. The array plate will contain 38 genes in total and 10 samples can be analyzed in one run of qPCR.

[2] = Preliminary screens of amino acids
Protocol: In addition to the amino acid combinations described above, several other combinations are tested that include, e.g., Trp and/or Arg to determine if inclusion of these amino acids confers additional dermatological benefits. […] At the outset, the following combinations of amino acids are tested: Ala, Gln, Gly, Ser (combo #1); Ala, Gln, Gly, Ser, Val, Ile (combo #2); Ala, Gln, Gly, Ser, Val; Ala, Gln, Gly, Ser, Ile; Ala, Gln, Gly, Ser, Ile, Val, Trp; Ala, Gln, Gly, Ser, Ile, Val, Arg; and Ala, Gln, Gly, Ser, Ile, Val, Trp, Arg.

[3] = system: HAS2 mRNA in human-derived epidermal keratinocytes (NHEK); assay: HAS2 mRNA fold change (qPCR) in keratinocytes; assay type: cell-based; settings: 4GAA 4 mM, ROL 10 μM
[4] = system: HAS3 mRNA in human-derived epidermal keratinocytes (NHEK); assay: HAS3 mRNA fold change (qPCR) in keratinocytes; assay type: cell-based; settings: 4GAA 4 mM, ROL 10 μM
[5] = Donor O and Donor R keratinocytes, 24 h in complete medium
[6] = NHEK Donors E, G, O, R, T, 4 h in amino acid-deprived medium

SMILES	effectiveness in comparative analysis of qPCR data with scoring system [1]	other results
O=C(O)[C@@H]1CCCN1 [Pro, proline]	least effective	–
N[C@@H](CS)C(=O)O [Cys, cysteine]	least effective	–
N[C@@H](CC(=O)O)C(=O)O [Asp, aspartic acid]	least effective	–
N[C@@H](CO)C(=O)O [Ser, serine]	most effective	–
N[C@@H](Cc1ccc(O)cc1)C(=O)O [Tyr, tyrosine]	least effective	–
C[C@H](N)C(=O)O [Ala, alanine]	most effective	–
NC(=O)CC[C@H](N)C(=O)O [Gln, glutamine]	most effective	–
N[C@@H](Cc1c[nH]c2ccccc12)C(=O)O [Trp, tryptophan]	–	effect in preliminary screens [2]: positive effects
N=C(N)NCCC[C@H](N)C(=O)O [Arg, arginine]	–	effect in preliminary screens [2]: positive effects
CC1=C(/C=C/C(C)=C/C=C/C(C)=C/CO)C(C)(C)CCC1 [ROL, retinol]	–	HAS2 mRNA gene expression [3, 5]: upregulated; HAS2 gene expression [3, 6]: upregulated; HAS3 mRNA gene expression [4, 5]: upregulated; HAS3 gene expression [4, 6]: upregulated
C[C@@H](O)[C@H](N)C(=O)O [Thr, threonine]	least effective	–
NCC(=O)O [Gly, glycine]	most effective	–
